The values below come from patent US5206236A, “Method for the treatment of malaria” (priority 1991, dated 1993).

Molecules are shown by their SMILES. “Also recorded” adds a separate entry of the source. Where two headings read alike, the source gives them in different places.

What all share (type): cell-based
Assay [1] has as its system Plasmodium falciparum strain D6 (mefloquine-resistant, chloroquine-sensitive). Briefly: In vitro drug sensitivity assay (3H-hypoxanthine incorporation), strain D6. The following applies: for IC50: Plasmodium falciparum. On the procedure: (§1) Plasmodium falciparum strains W2 (chloroquine-resistant, mefloquine-sensitive) and D6 (mefloquine-resistant, chloroquine-sensitive)were cultured in a medium consisting of RPMI-1640, 25 mM HEPES, 25 mM NaHCO3, and 10% (v/v) fresh frozen human plasma. Into the wells of a 96 well microtiter plate there was placed 200 ul per well of a 1.5% erythrocyte suspension containing 0.2% to 0.4% parasitized erythrocytes containing serial dilutions of the test compounds. The plate was then placed in an anaerobic chamber, flushed with nitrogen gas and incubated at 37° C. After 24 hours, 25 ul per well of G-^3 H-hypoxanthine (1 mCi/ml) were added and the plate reincubated as above. After 42 hours, the cells were harvested with a multimash-type cell harvester onto glass microfiber paper. A scintillation counter was used to determine the incorporated of ^3 H-hypoxanthine. The activities of the compounds tested were determined by comparing the incorporation of ^3 H-hypoxanthine to drug concentration using computerized non-linear regression analysis. [Antimicrob. Agents Chemother. 16:710, 1979; Am.J.Trop.Med.Hygiene 34:209, 1985].

The subject of assay [2] is Plasmodium falciparum strain W2 (chloroquine-resistant, mefloquine-sensitive). Kind of assay: In vitro drug sensitivity assay (3H-hypoxanthine incorporation), strain W2. The following applies: for IC50: Plasmodium falciparum. On the procedure: as §1
Assay [3] concerns Plasmodium falciparum strains W2 and D6. Briefly: In vitro drug sensitivity assay, overall efficacy over both strains. The settings on record: qualitative. On the procedure:
as §1

The mark [4] stands for this setting: strain D6, 3H-hypoxanthine incorporation, 42 hours, 37° C, read-out: IC50 (uM), D6.
The mark [5] stands for this setting: strain W2, 3H-hypoxanthine incorporation, 42 hours, 37° C, read-out: IC50 (uM), W2.

By IC50 is commonly meant the concentration that inhibits the measured activity by half.

With `COc1cc(C(=N)N)ccc1OCCCOc1ccc(C(=N)N)cc1OC` [Example 1], the IC50 turned out to be 0.077 µM in assay [1] (setting [4]) and 0.065 µM in assay [2] (setting [5]).
As for `N=C(N)c1ccc(NCCCCNc2ccc(C(=N)N)cc2)cc1` [Example 2], the IC50 amounted to 0.025 µM in assay [1] (setting [4]) and 0.057 µM in assay [2] (setting [5]).
The matching figures for `N=C(N)c1ccc(OCCCCOc2ccc(C(=N)N)cc2)cc1` [Example 3]: 0.057 µM and 0.12 µM.
With `N=C(N)c1ccc(OCCCCCOc2ccc(C(=N)N)cc2)cc1` [Example 4, reference compound], the half-maximal inhibitory concentration (IC50) in assay [1] (D6, read-out: IC50 (uM), D6) was found to be 0.038 µM; in assay [2] (W2, read-out: IC50 (uM), W2), 0.083 µM. For the same compound, in assay [3], the “efficacy against malaria (in words)” value was “moderately effective against malaria”.
In the case of `N=C(N)c1ccc(OCCCCCOc2ccc(C(=N)N)cc2[N+](=O)[O-])c([N+](=O)[O-])c1` [Example 5], the IC50 in assay [1] (D6, read-out: IC50 (uM), D6) is 0.071 µM; in assay [2] (W2, read-out: IC50 (uM), W2), 0.069 µM.
As for `N=C(N)c1ccc(OCCCCCOc2ccc(C(=N)N)cc2N)c(N)c1` [Example 6], the IC50 in assay [1] (setting [4]) amounted to 0.046 µM; in assay [2] (setting [5]), 0.076 µM.
The matching figures for `COc1cc(C(=N)N)ccc1OCCCCCOc1ccc(C(=N)N)cc1OC` [Example 7]: 0.106 µM and 0.066 µM.
`N=C(N)c1ccc(NCCCCCNc2ccc(C(=N)N)cc2)cc1` [Example 8]: the IC50 in assay [1] (setting [4]) is below 0.02 µM; in assay [2] (setting [5]), 0.022 µM. For the same compound, in assay [1] (qualitative), the “efficacy against the mefloquine-resistant strain (D6) (in words)” value is reported as “most effective compound”. Moreover, the “efficacy against the chloroquine-resistant strain (W2) (in words)” value in assay [2] (qualitative) was “most effective compound”. Also, the “efficacy against malaria (in words)” value in assay [3] was “most efficacious product identified to date; also recorded: best compound for treating both strains of Plasmodium falciparum”.
`N=C(N)c1ccc(OCCCCCCOc2ccc(C(=N)N)cc2)cc1` [Example 9]: the IC50 stood at 0.118 µM in assay [1] (setting [4]) and 0.345 µM in assay [2] (setting [5]).
For `N=C(N)c1ccc(OCCCCCOc2ccc(C(=N)N)cc2Cl)c(Cl)c1` [Example 10], the IC50 in assay [1] (setting [4]) was determined as 0.107 µM; in assay [2] (setting [5]) it was 0.165 µM.
The matching figures for `N=C(N)c1cccc(OCCCOc2cccc(C(=N)N)c2)c1` [Example 11]: 0.194 µM and 0.156 µM.
For the compound `N=C(N)c1cccc(OCCCCOc2cccc(C(=N)N)c2)c1` [Example 12], the figures for the IC50 in assay [1] (setting [4]) and in assay [2] (setting [5]) were 0.046 µM and 0.043 µM, respectively. Moreover, the “efficacy against malaria (in words)” value in assay [3] was “Very close in therapeutic efficacy against malaria”.
For the compound `N=C(N)c1cccc(OCCCCCOc2cccc(C(=N)N)c2)c1` [Example 13], the IC50 amounted to 0.069 µM in assay [1] (setting [4]) and 0.08 µM in assay [2] (setting [5]).
In the case of `N=C(N)c1cccc(OCCCCCCOc2cccc(C(=N)N)c2)c1` [Example 14], the results for the IC50 in assay [1] (setting [4]) and in assay [2] (setting [5]) were 0.132 µM and 0.125 µM, respectively.
Take `c1cc(C2=NCCN2)ccc1OCCCCCOc1ccc(C2=NCCN2)cc1` [Example 15]: the IC50 in assay [1] (setting [4]) is 0.023 µM; in assay [2] (setting [5]) it was 0.104 µM. For the same compound, the “efficacy against malaria (in words)” value in assay [3] is “Very close in therapeutic efficacy against malaria”.
In the case of `CN1CCN=C1c1ccc(OCCCCCOc2ccc(C3=NCCN3C)cc2)cc1` [Example 16], the half-maximal inhibitory concentration (IC50) in assay [1] (setting [4]) came to 0.089 µM; in assay [2] (setting [5]), 1.82 µM.
Taken in the same sequence, the figures for `COc1cc(C2=NCCN2)ccc1OCCCOc1ccc(C2=NCCN2)cc1OC` [Example 17] were 0.1 µM and 0.06 µM.
Turning to `c1cc(C2=NCCN2)ccc1OCCCOc1ccc(C2=NCCN2)cc1` [Example 18], the values for the half-maximal inhibitory concentration (IC50) in assay [1] (setting [4]) and in assay [2] (setting [5]) were 0.025 µM and 0.06 µM, respectively. Also, the “efficacy against malaria (in words)” value in assay [3] is reported as “Very close in therapeutic efficacy against malaria”.
